Laboratory results published in patent US20140349943A1, “TOPICAL FORMULATIONS OF CHEMERIN C15 PEPTIDES FOR THE TREATMENT OF DERMATOLOGICAL CONDITIONS” (priority 2011, published 2014).
Values joined by “and” are separate entries in the source; they are usually repeats but may differ in a detail not shown here. Identical values can stand only once. Peptide text beside a SMILES is read from it.

Assays:
[1] = system: IFNγ/LPS stimulated human macrophages; test: Cytokine secretion by IFNγ/LPS stimulated human macrophages (Luminex); assay type: cell-based
Text: In this example, the ability of human chemerin C15 to inhibit secretion of cytokines from activated human macrophages was examined. For this experiment, the activity of the human chemerin C15 peptide […] (SEQ ID NO: 1) was compared to that of the human chemerin C17 peptide […] (SEQ ID NO: 25). The C15 and C17 peptides were synthesized by solid phase synthesis using BOP coupling of FMOC protected amino acids with final cleavage from the resin with TFA. Peptides were purified by reverse phase C18 chromatography using a water/acetonitrile gradient.
Human macrophages were derived from human CD14+ monocytes obtained from 3 donors. On Day 1, the isolated monocytes were thawed and seeded in triplicate for each group in 1 ml RPMI 1640 GlutaMAX™ media (supplemented with 10% FBS, 100 U/ml penicillin, 100 μg/ml streptomycin, 0.05 μM mercaptoethanol, 1% NEAA and 1% sodium pyruvate) per well of a 24 well cell culture dish at a cell concentration of 5×10^5 cells/ml. M-CSF was added to each well to give a final concentration of 25 ng/ml. Cells were grown for 7 days at 37° C. with 5% CO2 to differentiate the cells into macrophages. Media and M-CSF were replaced after 4 days.
Following differentiation, the media containing M-CSF was removed. The cells were washed and vehicle control, dexamethasone, C15 or C17 were added to the appropriate wells. The test peptides were dissolved in 50% DMSO/water prior to addition. C-15 (MW 1669; 16.7 mg/ml) was added to a final concentration of […] and C17 (MW 1904; 19.0 mg/ml) was added to a final concentration of 1 μM. Dexamethasone was added to a final concentration of 1 μM. Following addition to the wells, the plates were incubated at 37° C. with 5% CO2 for 1 hour. An equal volume of complete media was added to the non-treated wells. Control or test treatments were maintained at the correct concentration throughout the assay.
IFNγ (final concentration 20 ng/ml) was then added to the appropriate wells. Following IFNγ addition, the plates were incubated at 37° C. with 5% CO2 for 4 hours. The concentration of vehicle control, test treatments or dexamethasone was maintained during IFNγ stimulation. LPS (final concentration 10 ng/ml) was then added to the appropriate wells. Following LPS addition, the plates were incubated at 37° C. with 5% CO2 for 15 hours. After 6 hours, ˜60 μl of culture supernatant was removed from all wells and stored at −80° C. for analysis. The concentration of vehicle control, test treatments or dexamethasone was maintained during LPS stimulation.
At 15 hours post LPS stimulation, the remaining cell culture supernatant was harvested and stored at −80° C. until assayed. The concentration of vehicle control, test treatments or dexamethasone was maintained until culture termination.
Cell culture supernatants taken at 6 hours and 15 hours post LPS addition were assayed for the production of RANTES, TNFα, IL-1β, IL-6, IL-10, IL-12p40 (subunit common to IL-12 and IL-23) and IL-15 (negative control) using Luminex® technology (Procarta human cytokine kit; Panomics) following the manufacturer's instructions.
In this experiment, the importance of the FYFP motif (SEQ ID NO: 2) in the human chemerin C15 peptide on anti-inflammatory activity was examined. The ability of the human chemerin C15 peptide […] (SEQ ID NO: 1) was compared to that of a substituted chemerin C15 peptide having the amino acid sequence […] (SEQ ID NO: 27), where the second phenylalanine in the peptide is modified to alanine. The experiment was performed as described in Example 1. 0.1 pM 0.5 pM and 1 pM concentrations of the C15 and C15 mutant peptides were tested. Cytokine expression was determined as described in Example 1.

[2] = Franz cell skin penetration, C15 in 50% DMSO in water; assay type: in vitro ADME, human
Text: The objective of the study was to determine whether human C15 peptide would diffuse through in vitro human skin maintained under flow-through conditions in Franz cells with 50% DMSO in water. 50% DMSO is considered an acceptable maximum for penetration enhancement.
The samples used in the study were mouse and human chemerin C15 peptides stored at −20 C°. The skin sample used was human skin obtained from mammoplasty. A frozen sample was stored at −20 C.° for 30 days. A fresh sample was obtained in tissue media and antibiotics and used within 3 days.
1. A 1% solution of mouse C15 in 50% DMSO in water was applied to previously frozen human skin to develop the HPLC method for subsequent tests with human C15. This was done in triplicate. 2. A 2% solution of human C15 in 50% DMSO in water was applied to fresh human skin and epidermis, dermis, and receptor fluid were analyzed for C15.
Skin was rinsed, blotted dry, cut into circular pieces and conditioned in the Franz cell for 2 hours prior to C15 application. Flow-through, water-jacketed diffusion cells that exposed a skin area of 2.54 cm2 were used. The cells were maintained at 37° C., operated under static conditions and stirred at 700 rpm for 24 hr. PBS (pH=7.0) was used as the receptor fluid. C15 solutions in 50% DMSO in water was prepared on the day of the experiments.
400 μl of each C15 solution was pipetted in aliquots of 100 μl onto the skin surface and the diffusion cell sealed with parafilm. Diffusion cells were run in triplicate with a single control consisting of skin treated with vehicle only. Receptor fluid (≈5 mL) was collected at the end of 24 hours and concentrated by evaporation prior to analysis. The skin was blotted dry, tape-stripped three times to remove residual C15 and heat-separated at 50° C. into epidermis and dermis. Epidermis was sonicated in 5% TCA for 10 minutes and the supernatant analyzed. Dermis was minced and homogenized in 5% TCA and the supernatant concentrated and analyzed.
For the mouse C15 experiment only the receptor fluid was analyzed.
A reverse-phase HPLC method was developed to quantify Human C15 (Shimamura et al., 2009). The separation was achieved using a Phenomenex Gemini™ C18 column (Cat. No. 00B-4439-E0, 4.6×50 mm, 3 μm) at 40° C. in the Shimadzu 20A system. The mobile phase was mixed with (A) 0.1% formic in water and (B) 0.1% formic acid in acetonitrile. The separation was conducted using a gradient system of 80% A+20% B to 10% A+90% B (0-3 min) and 10% A+90% B (3-3.5 min) at a flow rate of 0.8 ml/min. The injection volume was 5 μl. The eluent was monitored at 275 nm Human C15 was observed as a single peak in the chromatogram with retention time at about 1.8 min. The quantification of Human C15 was achieved by external standard calibration. […]

[3] = Example 3, 0.1 pM 0.5 pM and 1 pM tested, FIG. 3
[4] = 2% human C15 in 50% DMSO, fresh human skin, % absorbed of the applied dose, listed as C15

For `C[C@H](N)C(=O)NCC(=O)N[C@@H](CCC(=O)O)C(=O)N[C@@H](CC(=O)O)C(=O)N1CCC[C@H]1C(=O)N[C@@H](Cc1c[nH]cn1)C(=O)N[C@@H](CO)C(=O)N[C@@H](Cc1ccccc1)C(=O)N[C@@H](Cc1ccc(O)cc1)C(=O)N[C@@H](Cc1ccccc1)C(=O)N1CCC[C@H]1C(=O)NCC(=O)N[C@@H](CCC(N)=O)C(=O)N[C@@H](Cc1ccccc1)C(=O)N[C@@H](C)C(=O)O` [C15 (human)] (H-AGEDPHSFYFPGQFA-OH; N-terminus and C-terminus assumed), the “inhibition of newly synthesized RANTES (difference between the 6 and 15 hour time points)” value ([1]; 1 pM) was “approximately 90%”, the “decrease in IL-10” value ([1]; C15 peptide treatment) was about 25% and the “percent inhibition of RANTES expression” value [1, 3] was 47%. The “percent inhibition of TNFα expression” value [1, 3] was 61%, the “inhibition of cytokine production/secretion in vitro” value ([1]; within 15 hours) was 40-60% and the “% C15 in skin compartment, epidermis” value [2, 4] was 8.76% and 7.38% and 2.67%. For the same molecule, the “% C15 in skin compartment, receptor fluid” value [2, 4] was 0.02% and 0.09% and 0.01% and the “penetration through human skin, in words” value ([2]; in vitro flow-through conditions, 50% DMSO in water) was “does penetrate through human skin”.
For `C[C@H](N)C(=O)NCC(=O)N[C@@H](CCC(=O)O)C(=O)N[C@@H](CC(=O)O)C(=O)N1CCC[C@H]1C(=O)N[C@@H](Cc1c[nH]cn1)C(=O)N[C@@H](CO)C(=O)N[C@@H](Cc1ccccc1)C(=O)N[C@@H](Cc1ccc(O)cc1)C(=O)N[C@@H](Cc1ccccc1)C(=O)N1CCC[C@H]1C(=O)NCC(=O)N[C@@H](CCC(N)=O)C(=O)N[C@@H](Cc1ccccc1)C(=O)N[C@@H](C)C(=O)N[C@@H](Cc1ccccc1)C(=O)N[C@@H](CO)C(=O)O` [C17 (human)] (H-AGEDPHSFYFPGQFAFS-OH; N-terminus and C-terminus assumed), the “inhibition of cytokine production” value ([1]; 1 μM) was “did not exhibit any significant inhibition”.
For `CC(C)C[C@H](NC(=O)[C@H](Cc1ccccc1)NC(=O)[C@H](Cc1ccc(O)cc1)NC(=O)CNC(=O)[C@H](Cc1c[nH]cn1)NC(=O)[C@@H]1CCCN1C(=O)[C@H](CC(=O)O)NC(=O)[C@H](CCC(=O)O)NC(=O)CNC(=O)[C@H](C)N)C(=O)N1CCC[C@H]1C(=O)NCC(=O)N[C@@H](CCC(N)=O)C(=O)N[C@@H](Cc1ccccc1)C(=O)N[C@@H](C)C(=O)O` [mC15] (H-AGEDPHGYFLPGQFA-OH; N-terminus and C-terminus assumed), the “C15 receptor fluid level” value ([2]; 1% mouse C15 in 50% DMSO, frozen human skin) was 0.3%.
